According to BigSolDB 2.1:

c1ccc2[nH]c(-c3cscn3)nc2c1
solubility (mole fraction)
Settings | 283.15 K | 288.15 K | 293.15 K | 298.15 K | 303.15 K | 308.15 K | 313.15 K | 318.15 K | 323.15 K
in acetonitrile | 0.000106 | 0.000125 | 0.00015 | 0.000177 | 0.000213 | 0.000259 | 0.0003 | 0.000353 | 0.000419
in isopropanol | 0.000682 | 0.000785 | 0.000915 | 0.00103 | 0.00121 | 0.00137 | 0.00155 | 0.00174 | 0.00193
in methanol | 0.0013 | 0.00147 | 0.00163 | 0.00181 | 0.002 | 0.00223 | 0.00248 | 0.00273 | 0.00297
in n-propanol | 0.00136 | 0.00156 | 0.00177 | 0.002 | 0.00225 | 0.00252 | 0.00282 | 0.00314 | 0.00347
in water | 2.04e-07 | 2.67e-07 | 3.42e-07 | 4.23e-07 | 5.25e-07 | 6.68e-07 | 8.6e-07 | 1.08e-06 | 1.36e-06
